Test results from the PolyMetriX glass transition set.

| SMILES | glass transition temperature [°C] |
| --- | --- |
| *C#Cc1ccccc1C#C[SiH](*)c1ccccc1 (repeat unit) | 71.00 |
| *CCCCCCNC(=O)Cc1ccc(CC(=O)N*)cc1 (repeat unit) | 95.00 |
| *CCCCCCOC(=O)C(CCCCP(=O)(OCC)OCC)C(=O)OCCCCCCOc1ccc(-n2on2-c2ccc(O*)cc2)cc1 (repeat unit) | 4.00 |
| *CCCCCNC(=O)Cc1ccc(C(=O)N*)cc1 (repeat unit) | 103.00 |
| *CCCCNC(=O)Cc1ccc(C(=O)N*)cc1 (repeat unit) | 84.00 |
| *CCN(CCOC(=O)c1cc(OCCN(C)c2ccc(S(=O)(=O)C(F)(F)C(F)(F)C(F)(F)C(F)(F)C(F)(F)C(F)(F)C(F)(F)C(F)(F)F)cc2)cc(C(=O)O*)c1)c1ccc(S(=O)(=O)C(F)(F)C(F)(F)C(F)(F)C(F)(F)C(F)(F)C(F)(F)C(F)(F)C(F)(F)F)cc1 (repeat unit) | 83.00 |
| *C[Si](*)(C)CCCCCC (repeat unit) | -77.60 |
| *C[Si](*)(C)CCCn1c2ccccc2c2ccccc21 (repeat unit) | 71.20 |
| *C[Si](*)(CCC)CCC (repeat unit) | -41.00 |
| *C[Si](*)(CCCCCC)CCCCCC (repeat unit) | -56.00 |
| *Cc1cc(C23CC4CC(CC(C4)C2)C3)cc(CN(*)C)c1O (repeat unit) | 188.80 |
| *Cc1ccc(C[n+]2ccc(-c3cc[n+](*)cc3)cc2)cc1 (repeat unit) | 95.00 |
| *Cc1ccccc1C[n+]1ccc(-c2cc[n+](*)cc2)cc1 (repeat unit) | 70.50 |
| *Oc1ccc(CC(NC(=O)CCc2ccc(OC(=O)CCC(*)=O)cc2)C(=O)OCCCCCC)cc1 (repeat unit) | 53.00 |
| *Oc1ccc(CC(NC(=O)CCc2ccc(OC(=O)CCC(*)=O)cc2)C(=O)OCCOCCOCC)cc1 (repeat unit) | 34.00 |
| *Oc1ccc(CC(NC(=O)CCc2ccc(OC(=O)CCCC(*)=O)cc2)C(=O)OCCCCCC)cc1 (repeat unit) | 43.00 |
| *Oc1ccc(CC(NC(=O)CCc2ccc(OC(=O)CCCCC(*)=O)cc2)C(=O)OC(C)CC)cc1 (repeat unit) | 50.00 |
| *Oc1ccc(CC(NC(=O)CCc2ccc(OC(=O)CCCCC(*)=O)cc2)C(=O)OCC(C)C)cc1 (repeat unit) | 56.00 |
| *Oc1ccc(CC(NC(=O)CCc2ccc(OC(=O)CCCCCCC(*)=O)cc2)C(=O)OCC(C)C)cc1 (repeat unit) | 42.00 |
| *Oc1ccc(CC(NC(=O)CCc2ccc(OC(=O)CCCCCCCCC(*)=O)cc2)C(=O)OCC(C)C)cc1 (repeat unit) | 33.00 |
| *Oc1ccc(CC(NC(=O)CCc2ccc(OC(=O)CCCCCCCCC(*)=O)cc2)C(=O)OCCCCCCCC)cc1 (repeat unit) | 15.50 |
| *Oc1ccc(CC(NC(=O)Cc2ccc(OC(=O)CC(C)CCC(*)=O)cc2)C(=O)OCCCCCCCC)cc1 (repeat unit) | 30.00 |
| *Oc1ccc(CC(NC(=O)Cc2ccc(OC(=O)CCC(*)=O)cc2)C(=O)OCCCCCCCC)cc1 (repeat unit) | 51.00 |
| *Oc1ccc(CC(NC(=O)Cc2ccc(OC(=O)CCCC(*)=O)cc2)C(=O)OCCCCCCCC)cc1 (repeat unit) | 38.00 |
| *Oc1ccc(CC(NC(=O)Cc2ccc(OC(=O)CCCCCCC(*)=O)cc2)C(=O)OCCCCCCCC)cc1 (repeat unit) | 22.00 |

More lines, now with the values ahead:

| glass transition temperature [°C] | SMILES |
| --- | --- |
| 278.00 | *C(=O)Nc1c(C)cc(Cc2cc(C)c(NC(=O)c3ccc4c(c3)C(=O)N(c3ccc(/N=N/c5ccc(OC(F)(F)F)cc5)c(N5C(=O)c6ccc(*)cc6C5=O)c3)C4=O)c(C)c2)cc1C (repeat unit) |
| 264.00 | *C(=O)Nc1ccc(/N=N/c2ccc([N+](=O)[O-])cc2)c(NC(=O)c2ccc3c(c2)C(=O)N(c2c(C)cc(Cc4cc(C)c(N5C(=O)c6ccc(*)cc6C5=O)c(C)c4)cc2C)C3=O)c1 (repeat unit) |
| 93.00 | *CCCCCCOC(=O)c1cc(OCCCCCCOc2ccc(/N=N/c3ccc(C#N)cc3)cc2)cc(C(=O)OCCCCCCN2C(=O)c3ccc(-c4ccc5c(c4)C(=O)N(*)C5=O)cc3C2=O)c1 (repeat unit) |
| 61.00 | *CCCCCCOC(=O)c1cc(OCCCCCCOc2ccc(/N=N/c3ccc(C#N)cc3)cc2)cc(C(=O)OCCCCCCN2C(=O)c3ccc(Oc4ccc5c(c4)C(=O)N(*)C5=O)cc3C2=O)c1 (repeat unit) |
| 140.00 | *CCN(CCOC(=O)c1cc(OCc2c(F)c(F)c(OC)c(F)c2F)cc(C(=O)O*)c1)c1ccc(/C=C/c2ccc(/C=C/C3=C(C#N)C(=C(C#N)C#N)OC3(c3ccccc3)C(F)(F)F)s2)cc1 (repeat unit) |
| 119.00 | *CCN(CCOC(=O)c1ccc(C(=O)O*)c(OCCC)c1)c1ccc(-c2nc3ccc([N+](=O)[O-])cc3o2)cc1 (repeat unit) |
| 248.00 | *Cc1cc2cc(C(=O)Nc3ccc(-c4ccc(NC(=O)c5cc6cc(*)c(OC(=O)COc7ccc8ccc(=O)oc8c7)cc6oc5=O)cc4)cc3)c(=O)oc2cc1OC(=O)COc1ccc2ccc(=O)oc2c1 (repeat unit) |
| 221.00 | *Cc1cc2cc(C(=O)Nc3ccc(Cc4ccc(NC(=O)c5cc6cc(*)c(OC(=O)COc7ccc8ccc(=O)oc8c7)cc6oc5=O)cc4)cc3)c(=O)oc2cc1OC(=O)COc1ccc2ccc(=O)oc2c1 (repeat unit) |
| 240.00 | *Cc1cc2cc(C(=O)Nc3cccc(NC(=O)c4cc5cc(*)c(OC(=O)COc6ccc7ccc(=O)oc7c6)cc5oc4=O)c3)c(=O)oc2cc1OC(=O)COc1ccc2ccc(=O)oc2c1 (repeat unit) |
| 91.50 | *Oc1ccc(CC(NC(=O)CCc2ccc(OC(=O)CCC(*)=O)cc2)C(=O)OC)cc1 (repeat unit) |
| 75.00 | *Oc1ccc(CC(NC(=O)CCc2ccc(OC(=O)CCC(*)=O)cc2)C(=O)OCC(C)C)cc1 (repeat unit) |
| 67.00 | *Oc1ccc(CC(NC(=O)CCc2ccc(OC(=O)CCC(*)=O)cc2)C(=O)OCCCC)cc1 (repeat unit) |
| 52.00 | *Oc1ccc(CC(NC(=O)CCc2ccc(OC(=O)CCCC(*)=O)cc2)C(=O)OC(C)CC)cc1 (repeat unit) |
| 70.00 | *Oc1ccc(CC(NC(=O)CCc2ccc(OC(=O)CCCC(*)=O)cc2)C(=O)OCC)cc1 (repeat unit) |
| 61.00 | *Oc1ccc(CC(NC(=O)CCc2ccc(OC(=O)CCCCC(*)=O)cc2)C(=O)OCC)cc1 (repeat unit) |
| 80.00 | *Oc1ccc(CC(NC(=O)CCc2ccc(OC(=O)COCC(*)=O)cc2)C(=O)OC(C)C)cc1 (repeat unit) |
| 68.00 | *Oc1ccc(CC(NC(=O)CCc2ccc(OC(=O)COCC(*)=O)cc2)C(=O)OC(C)CC)cc1 (repeat unit) |

| glass transition temperature [°C] | SMILES |
| --- | --- |
| 79.00 | *Oc1ccc(CC(NC(=O)CCc2ccc(OC(=O)COCC(*)=O)cc2)C(=O)OCC)cc1 (repeat unit) |
| 54.00 | *Oc1ccc(CC(NC(=O)Cc2ccc(OC(=O)CCCCCCC(*)=O)cc2)C(=O)OCC)cc1 (repeat unit) |
| 232.00 | *Oc1ccc(S(=O)(=O)c2ccc(Oc3c(C)cc(Cc4cc(C)c(*)c(C)c4)cc3C)cc2)cc1 (repeat unit) |
| 276.00 | *c1c(C)cc(-c2cc(C)c(N3C(=O)c4cccc(Oc5c(C)cc(Cc6cc(C)c(Oc7cccc8c7C(=O)N(*)C8=O)c(C)c6)cc5C)c4C3=O)c(C)c2)cc1C (repeat unit) |
| 247.00 | *c1c(C)cc(Cc2cc(C)c(N3C(=O)c4ccc(Oc5ccc(C(C)(C)c6ccc(Oc7ccc8c(c7)C(=O)N(*)C8=O)cc6)cc5)cc4C3=O)c(C)c2)cc1C (repeat unit) |
| 243.00 | *c1c(C)cc(Cc2cc(C)c(N3C(=O)c4cccc(Oc5c(C)cc(Cc6cc(C)c(Oc7cccc8c7C(=O)N(*)C8=O)c(C)c6)cc5C)c4C3=O)c(C)c2)cc1C (repeat unit) |
| 223.00 | *c1c(C)cc(Cc2cc(C)c(N3C(=O)c4cccc(Oc5ccc(C(C)(C)c6ccc(Oc7cccc8c7C(=O)N(*)C8=O)cc6)cc5)c4C3=O)c(C)c2)cc1C (repeat unit) |
| 226.00 | *c1ccc(CC(=O)Nc2ccc(Oc3ccc(NC(=O)Cc4ccc(-c5sc(*)c(-c6ccccc6)c5-c5ccccc5)cc4)cc3)cc2)cc1 (repeat unit) |
| 255.00 | *c1ccc(CC(=O)Nc2cccc3c(NC(=O)Cc4ccc(-c5sc(*)c(-c6ccccc6)c5-c5ccccc5)cc4)cccc23)cc1 (repeat unit) |
| 324.00 | *c1ccc(Cc2ccc(N3C(=O)c4ccc(-c5ccc6c(c5)C(=O)N(*)C6=O)cc4C3=O)c(C(C)(C)C)c2)cc1C(C)(C)C (repeat unit) |
| 202.70 | *c1ccc(Cc2ccc(N3C(=O)c4cccc5c(N6CCC(CCCC7CCN(c8ccc9c%10c(cccc8%10)C(=O)N(*)C9=O)CC7)CC6)ccc(c45)C3=O)c(C(C)(C)C)c2)cc1C(C)(C)C (repeat unit) |
| 273.00 | *c1ccc(NC(=O)Cc2ccc(-c3sc(-c4ccc(CC(=O)Nc5ccc(-c6sc(*)c(-c7ccccc7)c6-c6ccccc6)cc5)cc4)c(-c4ccccc4)c3-c3ccccc3)cc2)cc1 (repeat unit) |
| 259.00 | *c1ccc(Oc2ccc(-c3ccc(Oc4ccc(N5C(=O)c6cccc(Oc7c(C)cc(Cc8cc(C)c(Oc9cccc%10c9C(=O)N(*)C%10=O)c(C)c8)cc7C)c6C5=O)cc4)cc3)cc2)cc1 (repeat unit) |
| 266.00 | *c1ccc(Oc2ccc(N3C(=O)c4ccc(Oc5c(C)cc(Cc6cc(C)c(Oc7ccc8c(c7)C(=O)N(*)C8=O)c(C)c6)cc5C)cc4C3=O)cc2)cc1 (repeat unit) |
| 298.00 | *c1ccc2c(c1)C(=O)N(c1ccc(Oc3c(C)cc(Cc4cc(C)c(Oc5ccc(N6C(=O)c7ccc(C(*)(C(F)(F)F)C(F)(F)F)cc7C6=O)cc5)c(C)c4)cc3C)cc1)C2=O (repeat unit) |
| 245.00 | *c1cccc(N2C(=O)c3ccc(Oc4c(C)cc(Cc5cc(C)c(Oc6ccc7c(c6)C(=O)N(*)C7=O)c(C)c5)cc4C)cc3C2=O)c1 (repeat unit) |
